Experimental data as given in the NIST ThermoML archive (doi:10.1016/j.jct.2005.03.006).
Numbers after ± are expanded uncertainties.

Test: wn = mass fraction of the nth substance listed
Conditions: Liquid, Buoyancy - hydrostatic balance

CCc1ccccc1 [ethylbenzene] + CO
mass density [kg/m3]
Conditions	100 kPa	5000 kPa	9900 kPa	19700 kPa	29700 kPa	39300 kPa	49100 kPa	58900 kPa
292.05 K, w2 = 0.5	830.6 ± 10	834.1 ± 10	838.5 ± 10	845.6 ± 10	852.2 ± 10	858.6 ± 10	864.4 ± 10	871.2 ± 10
292.4 K, w2 = 0.75	813.3 ± 10	817.6 ± 10	822.1 ± 10	827.7 ± 10	836.5 ± 10	843 ± 10	848.8 ± 10	855.8 ± 10
292.65 K, w2 = 0.25	848 ± 10	851.5 ± 10	855.3 ± 10	862.7 ± 10	868.8 ± 10	874.8 ± 10	880.7 ± 10	886.8 ± 10
314.55 K, w2 = 0.5	810.8 ± 10	815.2 ± 10	819.6 ± 10	827.8 ± 10	835.2 ± 10	842 ± 10	848.6 ± 10	854.4 ± 10
314.65 K, w2 = 0.25	828.6 ± 10	833.1 ± 10	837.2 ± 10	845.1 ± 10	852 ± 10	859 ± 10	869.3 ± 10	871.5 ± 10
317.6 K, w2 = 0.75	795.3 ± 10	799.8 ± 10	804 ± 10	810.8 ± 10	820.2 ± 10	827.4 ± 10	–	840.4 ± 10
335.35 K, w2 = 0.75	–	778.8 ± 10	783 ± 10	790.7 ± 10	801.3 ± 10	809.4 ± 10	816.4 ± 10	823.5 ± 10
335.45 K, w2 = 0.25	–	815 ± 10	819.5 ± 10	828.3 ± 10	836.8 ± 10	844.1 ± 10	850.4 ± 10	856.4 ± 10
337.65 K, w2 = 0.5	–	794.3 ± 10	799.5 ± 10	808.3 ± 10	816.7 ± 10	824.4 ± 10	831.7 ± 10	837.8 ± 10
358.8 K, w2 = 0.75	–	754.4 ± 10	759.7 ± 10	768.5 ± 10	780.5 ± 10	789.6 ± 10	797.4 ± 10	805.5 ± 10
359.95 K, w2 = 0.25	–	790.3 ± 10	796.2 ± 10	807.6 ± 10	817.7 ± 10	825.5 ± 10	831.8 ± 10	838 ± 10
360.45 K, w2 = 0.5	–	771.3 ± 10	778.5 ± 10	788.1 ± 10	797.9 ± 10	806.5 ± 10	814.1 ± 10	820.5 ± 10
384.05 K, w2 = 0.75	–	725.4 ± 10	732.8 ± 10	743 ± 10	757.2 ± 10	767.3 ± 10	776.2 ± 10	785.4 ± 10
384.45 K, w2 = 0.5	–	744 ± 10	754.8 ± 10	766.4 ± 10	777.5 ± 10	786.6 ± 10	797.7 ± 10	801.6 ± 10
385.75 K, w2 = 0.25	–	763.2 ± 10	770.7 ± 10	785.7 ± 10	797.4 ± 10	806 ± 10	813 ± 10	819.7 ± 10
407.15 K, w2 = 0.25	–	739 ± 10	748.1 ± 10	765 ± 10	778.9 ± 10	–	796.4 ± 10	804.1 ± 10
408.15 K, w2 = 0.5	–	713.2 ± 10	729.5 ± 10	742.4 ± 10	754.8 ± 10	765.3 ± 10	774.1 ± 10	783 ± 10
410.05 K, w2 = 0.75	–	691 ± 10	701 ± 10	714.3 ± 10	731.6 ± 10	742.6 ± 10	753.1 ± 10	763 ± 10
433.5 K, w2 = 0.25	–	707.9 ± 10	719.4 ± 10	739 ± 10	755.8 ± 10	767 ± 10	775 ± 10	784.4 ± 10
434.15 K, w2 = 0.5	–	677.4 ± 10	695.9 ± 10	712.8 ± 10	728.6 ± 10	741.1 ± 10	751.2 ± 10	761.4 ± 10
434.35 K, w2 = 0.75	–	654.7 ± 10	668.2 ± 10	686 ± 10	706.5 ± 10	719 ± 10	730.7 ± 10	742.3 ± 10
459.55 K, w2 = 0.75	–	608.3 ± 10	628.7 ± 10	651.4 ± 10	677.4 ± 10	692.5 ± 10	706.4 ± 10	719.5 ± 10
460.25 K, w2 = 0.5	–	634.7 ± 10	653.7 ± 10	677.5 ± 10	697.7 ± 10	713.4 ± 10	726.4 ± 10	738.3 ± 10
460.45 K, w2 = 0.25	–	668.7 ± 10	683.4 ± 10	708.2 ± 10	727.1 ± 10	740.5 ± 10	751.2 ± 10	761.5 ± 10
489.65 K, w2 = 0.75	–	527.2 ± 10	571 ± 10	607 ± 10	640.3 ± 10	659.7 ± 10	677.3 ± 10	692.8 ± 10
491.15 K, w2 = 0.5	–	554 ± 10	594.2 ± 10	633.2 ± 10	656.5 ± 10	–	693 ± 10	708.6 ± 10
497.95 K, w2 = 0.25	–	623 ± 10	640.4 ± 10	671 ± 10	693.7 ± 10	710.4 ± 10	724.5 ± 10	736 ± 10

c1ccccc1 [benzene] + CO
mass density [kg/m3]
Conditions	100 kPa	5000 kPa	9900 kPa	19700 kPa	29500 kPa	39300 kPa	49100 kPa	58900 kPa
287.65 K, w2 = 0.5	840.5 ± 10	844.4 ± 10	847.9 ± 10	855.8 ± 10	863 ± 10	869.5 ± 10	875.2 ± 10	881 ± 10
291.15 K, w2 = 0.25	857.7 ± 10	862 ± 10	866.1 ± 10	873.8 ± 10	880.6 ± 10	887.3 ± 10	893.2 ± 10	899.1 ± 10
292.65 K, w2 = 0.75	815.2 ± 10	819.9 ± 10	824.2 ± 10	832.1 ± 10	839.2 ± 10	846.4 ± 10	852.5 ± 10	858.7 ± 10
297.35 K, w2 = 0.5	830.9 ± 10	835.6 ± 10	839.9 ± 10	847.7 ± 10	855 ± 10	862.1 ± 10	868 ± 10	874 ± 10
313.66 K, w2 = 0.25	835 ± 10	840.1 ± 10	844.8 ± 10	852.9 ± 10	860.8 ± 10	868.4 ± 10	875.1 ± 10	881 ± 10
314.15 K, w2 = 0.75	795.6 ± 10	800.3 ± 10	804.7 ± 10	813 ± 10	821.1 ± 10	828.8 ± 10	835.9 ± 10	–
322.15 K, w2 = 0.5	806.5 ± 10	811.8 ± 10	817 ± 10	825.3 ± 10	833.4 ± 10	841.4 ± 10	848.2 ± 10	855.1 ± 10
337.37 K, w2 = 0.25	–	816.2 ± 10	822.1 ± 10	831 ± 10	840 ± 10	848.3 ± 10	856 ± 10	862.7 ± 10
338.35 K, w2 = 0.75	–	776.6 ± 10	781.6 ± 10	791 ± 10	800.2 ± 10	809 ± 10	817.1 ± 10	823.9 ± 10
341.35 K, w2 = 0.5	–	791.4 ± 10	797.7 ± 10	807.3 ± 10	816.2 ± 10	825.1 ± 10	832.9 ± 10	840 ± 10
356.15 K, w2 = 0.5	–	775.2 ± 10	781.8 ± 10	792 ± 10	802.8 ± 10	811.7 ± 10	819.8 ± 10	827.6 ± 10
361.64 K, w2 = 0.25	–	789.2 ± 10	796.5 ± 10	806.8 ± 10	817.1 ± 10	826.9 ± 10	835 ± 10	842.7 ± 10
361.65 K, w2 = 0.75	–	750.9 ± 10	757 ± 10	767.9 ± 10	778.4 ± 10	788.1 ± 10	797 ± 10	804.9 ± 10
376.65 K, w2 = 0.5	–	750.9 ± 10	758.2 ± 10	770.8 ± 10	784 ± 10	793.2 ± 10	801.8 ± 10	–
383.15 K, w2 = 0.75	–	724.9 ± 10	732.5 ± 10	745 ± 10	757.4 ± 10	768.2 ± 10	777.8 ± 10	786.9 ± 10
383.16 K, w2 = 0.25	–	764.1 ± 10	772.6 ± 10	784.4 ± 10	796.3 ± 10	807.6 ± 10	815.9 ± 10	824.8 ± 10
402.15 K, w2 = 0.5	–	718.4 ± 10	726.6 ± 10	742.7 ± 10	757.7 ± 10	769 ± 10	778.9 ± 10	788.6 ± 10
406.65 K, w2 = 0.75	–	693.4 ± 10	703.3 ± 10	718.9 ± 10	733.3 ± 10	745 ± 10	755.9 ± 10	766.2 ± 10
407.66 K, w2 = 0.25	–	732 ± 10	741.5 ± 10	757.6 ± 10	771.3 ± 10	784.6 ± 10	793.3 ± 10	803.2 ± 10
428.15 K, w2 = 0.5	–	678.8 ± 10	689.5 ± 10	710.6 ± 10	728.7 ± 10	742.1 ± 10	753.2 ± 10	764.7 ± 10
429.26 K, w2 = 0.25	–	699.7 ± 10	710.6 ± 10	731.1 ± 10	748.2 ± 10	762.9 ± 10	773 ± 10	783.8 ± 10
431.35 K, w2 = 0.75	–	656.6 ± 10	667.9 ± 10	689.5 ± 10	706.7 ± 10	720 ± 10	732.5 ± 10	744.1 ± 10
453.2 K, w2 = 0.25	–	659.6 ± 10	673.3 ± 10	699.7 ± 10	720.8 ± 10	736.9 ± 10	748.8 ± 10	760.9 ± 10
453.65 K, w2 = 0.5	–	634 ± 10	649.1 ± 10	676.5 ± 10	697.6 ± 10	714 ± 10	727 ± 10	739.3 ± 10
458.5 K, w2 = 0.75	–	605.4 ± 10	624.7 ± 10	653.6 ± 10	674.8 ± 10	690.2 ± 10	705 ± 10	718.3 ± 10
475.26 K, w2 = 0.25	–	616.4 ± 10	639.6 ± 10	669.8 ± 10	694.3 ± 10	710.8 ± 10	725.7 ± 10	739.4 ± 10
477.35 K, w2 = 0.75	–	558.2 ± 10	590.9 ± 10	628.5 ± 10	652.3 ± 10	669.8 ± 10	686.2 ± 10	699.9 ± 10
496.65 K, w2 = 0.75	–	483.6 ± 10	549.1 ± 10	601.8 ± 10	628.5 ± 10	647.8 ± 10	665.6 ± 10	680.8 ± 10
497.15 K, w2 = 0.5	–	520.7 ± 10	570 ± 10	617.6 ± 10	643.1 ± 10	661.9 ± 10	680.8 ± 10	694.6 ± 10
497.17 K, w2 = 0.25	–	566.6 ± 10	598.9 ± 10	639 ± 10	664.5 ± 10	684.2 ± 10	701.6 ± 10	717 ± 10
